From publication PMC3083694, “Effects of Intermediates between Vitamins K2 and K3 on Mammalian DNA Polymerase Inhibition and Anti-Inflammatory Activity” (International Journal of Molecular Sciences, 2011)

Columns and labels:
[1] = target: T1, Human DNA polymerase λ (Homo sapiens, UniProt Q9UGP5); assay: DNA polymerase activity assay, human pol λ; type: biochemical; details: for Inhibitory effect on human pol λ activity: 50 μM of each compound, Figure 2
T1 construct: made in house
T1 sequence (Q9UGP5 1-575): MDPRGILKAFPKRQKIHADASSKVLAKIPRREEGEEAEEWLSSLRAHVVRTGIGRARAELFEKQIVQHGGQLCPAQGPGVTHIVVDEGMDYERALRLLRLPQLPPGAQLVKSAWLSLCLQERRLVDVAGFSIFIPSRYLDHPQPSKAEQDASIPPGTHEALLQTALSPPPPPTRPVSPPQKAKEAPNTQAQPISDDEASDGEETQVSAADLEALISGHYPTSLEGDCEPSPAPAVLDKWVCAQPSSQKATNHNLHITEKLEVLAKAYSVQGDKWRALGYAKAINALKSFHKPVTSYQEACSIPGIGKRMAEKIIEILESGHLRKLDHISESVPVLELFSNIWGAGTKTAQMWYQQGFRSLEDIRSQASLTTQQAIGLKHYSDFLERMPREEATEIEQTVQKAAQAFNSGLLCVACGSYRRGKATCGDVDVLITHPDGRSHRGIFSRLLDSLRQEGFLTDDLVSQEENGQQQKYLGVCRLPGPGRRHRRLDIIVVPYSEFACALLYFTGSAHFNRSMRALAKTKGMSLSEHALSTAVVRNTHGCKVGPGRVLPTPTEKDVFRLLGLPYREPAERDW
Protocol: (§1) Pols from mammals, a fish (cherry salmon), an insect (fruit fly) and a plant (cauliflower) were purified, and prokaryotic pols and other DNA metabolic enzymes, such as T7 RNA polymerase, T4 polynucleotide kinase and bovine deoxyribonuclease I, were purchased as described in our previous report. The activities of all pols and other DNA metabolic enzymes were measured as described in previous reports.
(§2) The components of the pol assay were poly(dA)/oligo(dT)18 and dTTP as the DNA template-primer and 2′-deoxyribonucleoside 5′-triphosphate (dNTP) substrate, respectively. VK2, VK3, and their synthesized derivatives (i.e., MK-3, MK-2 and MK-1) were dissolved in dimethyl sulfoxide (DMSO) at various concentrations and sonicated for 30 s. The sonicated samples (4 μL) were mixed with 16 μL of each pol enzyme (final amount, 0.05 units) in 50 mM Tris-HCl (pH 7.5) containing 1 mM dithiothreitol, 50% glycerol and 0.1 mM EDTA, and kept at 0 °C for 10 min. These inhibitor–enzyme mixtures (8 μL) were added to 16 μL of each standard enzyme reaction mixture (50 mM Tris-HCl [pH 7.5], 1 mM dithiothreitol, 1 mM MgCl2, 15% glycerol, 10 μM poly(dA)/oligo(dT)18 and 10 μM [^3H]-dTTP), and incubation was carried out at 37 °C for 60 min, except for Taq pol, which was incubated at 74 °C for 60 min. Activity without the inhibitor was considered to be 100%, and the activity remaining at each concentration of inhibitor was determined relative to this value. One unit of pol activity was defined as the amount of enzyme that catalyzed the incorporation of 1 nmol dNTP (dTTP) into the synthetic DNA template-primer (poly(dA)/oligo(dT)18, A/T = 2/1) in 60 min at 37 °C under normal reaction conditions for each enzyme (scintillation counts: approximately 1 pmol of incorporated radioactive nucleotides = 100 cpm).

[2] = target: T2, Calf DNA polymerase α (Bos taurus, UniProt A0AAA9TD94); assay: DNA polymerase activity assay, calf pol α; type: biochemical; details: for Inhibitory effect on calf pol α activity: 50 μM of each compound, Figure 2
T2 construct: made in house
T2 sequence (A0AAA9TD94 1-1441): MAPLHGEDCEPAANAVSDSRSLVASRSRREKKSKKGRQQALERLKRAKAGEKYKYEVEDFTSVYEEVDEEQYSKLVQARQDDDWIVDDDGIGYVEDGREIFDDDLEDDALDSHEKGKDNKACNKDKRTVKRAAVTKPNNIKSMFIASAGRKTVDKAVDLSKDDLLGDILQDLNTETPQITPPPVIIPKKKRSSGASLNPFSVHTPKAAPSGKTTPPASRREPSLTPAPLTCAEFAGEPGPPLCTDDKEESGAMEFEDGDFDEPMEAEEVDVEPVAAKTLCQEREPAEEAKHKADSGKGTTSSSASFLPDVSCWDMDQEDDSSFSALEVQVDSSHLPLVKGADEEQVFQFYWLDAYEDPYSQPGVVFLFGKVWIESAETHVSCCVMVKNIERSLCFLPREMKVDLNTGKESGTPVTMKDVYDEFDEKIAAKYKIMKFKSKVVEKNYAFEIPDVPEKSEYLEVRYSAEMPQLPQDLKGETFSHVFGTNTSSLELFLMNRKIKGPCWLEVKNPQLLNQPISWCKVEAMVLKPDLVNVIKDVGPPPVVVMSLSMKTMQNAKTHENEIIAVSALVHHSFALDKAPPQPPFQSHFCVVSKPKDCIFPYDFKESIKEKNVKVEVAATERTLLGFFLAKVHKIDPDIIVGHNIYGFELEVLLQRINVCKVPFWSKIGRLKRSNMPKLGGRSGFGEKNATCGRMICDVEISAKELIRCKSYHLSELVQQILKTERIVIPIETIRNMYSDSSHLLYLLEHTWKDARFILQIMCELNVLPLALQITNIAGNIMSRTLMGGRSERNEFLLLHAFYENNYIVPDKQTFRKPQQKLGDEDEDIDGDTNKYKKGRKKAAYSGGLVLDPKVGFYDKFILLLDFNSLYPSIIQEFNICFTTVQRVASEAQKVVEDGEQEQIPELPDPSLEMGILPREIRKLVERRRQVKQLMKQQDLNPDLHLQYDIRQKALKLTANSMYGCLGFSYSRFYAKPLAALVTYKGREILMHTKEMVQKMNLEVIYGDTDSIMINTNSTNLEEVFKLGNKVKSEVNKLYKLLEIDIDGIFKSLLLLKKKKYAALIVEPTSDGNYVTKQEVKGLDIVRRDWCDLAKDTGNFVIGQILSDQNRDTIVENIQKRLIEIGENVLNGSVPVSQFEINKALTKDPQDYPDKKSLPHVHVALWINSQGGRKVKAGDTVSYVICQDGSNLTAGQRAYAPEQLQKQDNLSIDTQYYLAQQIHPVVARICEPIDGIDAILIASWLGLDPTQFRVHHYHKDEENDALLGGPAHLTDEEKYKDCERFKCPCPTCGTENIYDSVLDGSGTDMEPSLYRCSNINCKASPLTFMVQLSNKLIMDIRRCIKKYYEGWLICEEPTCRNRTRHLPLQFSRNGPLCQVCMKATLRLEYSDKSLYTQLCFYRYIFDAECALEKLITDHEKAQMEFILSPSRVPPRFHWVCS
Protocol: as §1, §2

| SMILES | Inhibitory effect on human pol λ activity [1] | Inhibitory effect on calf pol α activity [2] | IC50 ([1]; X-family pol, read-out: IC50 Value of MK-2, Human DNA polymerase λ) [µM] | IC50 ([2]; B-family pol, read-out: IC50 Value of MK-2, Calf DNA polymerase α) [µM] |
| --- | --- | --- | --- | --- |
| CC(C)=CCC/C(C)=C/CC/C(C)=C/CC1=C(C)C(=O)c2ccccc2C1=O [MK-3] | inhibited the activity | inhibited the activity |  |  |
| CC(C)=CCC/C(C)=C/CC/C(C)=C/CC/C(C)=C/CC1=C(C)C(=O)c2ccccc2C1=O [MK-4, menaquinone 4, reference compound] | had no effect on pol activity | had no effect on pol activity |  |  |
| CC(C)=CCC/C(C)=C/CC1=C(C)C(=O)c2ccccc2C1=O [MK-2] | inhibited the activity | inhibited the activity | 24.6 ± 1.4 | 27.6 ± 1.6 |
| CC(C)=CCC1=C(C)C(=O)c2ccccc2C1=O [MK-1] | inhibited the activity | inhibited the activity |  |  |
